# Results from patent publication US20250179077A1, “QUINAZOLINE COMPOUNDS AND USES THEREOF AS INHIBITORS OF MUTANT KRAS PROTEINS” (AMGEN INC., priority 2022, published 2025).
# Where two headings read alike, the source gives them in different places.
# Assays:
# [1] = target: His-tagged KRAS G12D protein (Homo sapiens, UniProt P01116, G12D); assay: KRAS G12D TR-FRET Assay; type: binding
# Outline: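 His-KRAS G12D (20 nM) was preincubated with titrated compound for 30 min at RT in HEPES pH 7.4 buffer with MgCl2, 10 μM GDP. Biotin-KRPep-2d (20 nM) was then added for 1 h, followed by Eu-anti-His/streptavidin-d2 for 1 h. The 665/615 nm TR-FRET ratio was fitted 4-parameter to give IC50.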
# [2] = target: GDP-bound KRAS protein (aa 1-169), containing both G12D and C118A amino acid substitutions (Homo sapiens, UniProt P01116, C118A/G12D); assay: KRAS G12D Coupled Nucleotide Exchange Assay; type: biochemical
# Method: KRAS G12D Coupled Nucleotide Exchange Assay
# Following compound pre-incubation, purified SOS protein (aa 564-1049) and GTP (Roche 10106399001) were added to the assay wells and incubated for an additional 30 min. […] The assay plates were then read on a PerkinElmer EnVision Multilabel Reader, using AlphaScreen® technology, and data were analyzed using a 4-parameter logistic model to calculate IC50 values.
# [3] = test system: Phosphorylation of ERK1/2 in AsPC-1 cells; assay: Phospho-ERK1/2 MSD Assay; type: cell-based
# Outline: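 Phospho-ERK1/2 was quantified by MSD whole-cell lysate immunoassay in RIPA lysates made with protease/phosphatase inhibitors. A 4-parameter logistic model gave IC50.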
# [4] = Homo sapiens, ASPC1, 2 h, read-out: 2 h p-ERK (AsPC-1 cells), IC50, AsPC-1 cells, 2 h compound treatment
# Sequence of GDP-bound KRAS protein (aa 1-169), containing both G12D and C118A amino acid substitutions (P01116 1-169 isoform P01116-2 G12D/C118A): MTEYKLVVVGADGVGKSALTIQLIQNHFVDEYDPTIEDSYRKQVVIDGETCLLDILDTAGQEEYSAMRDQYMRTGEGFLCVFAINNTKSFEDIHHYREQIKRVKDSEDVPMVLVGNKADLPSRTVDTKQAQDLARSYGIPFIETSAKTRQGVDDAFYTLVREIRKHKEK
# Sequence of His-tagged KRAS G12D protein (P01116 1-188 isoform P01116-2 G12D): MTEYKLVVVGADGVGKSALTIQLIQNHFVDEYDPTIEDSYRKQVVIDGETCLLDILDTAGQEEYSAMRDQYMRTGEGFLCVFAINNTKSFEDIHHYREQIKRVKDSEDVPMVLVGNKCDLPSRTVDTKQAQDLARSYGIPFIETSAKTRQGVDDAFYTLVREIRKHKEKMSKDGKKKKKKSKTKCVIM
Compound,IC50 [1] [nM],IC50 [2] [nM],"IC50 [3, 4] [nM]","IC50 ([3]; read-out: 2 h p-ERK (AsPC-1 cells), IC50, AsPC-1 cells, 2 h compound treatment) [nM]"
"CCc1c(F)ccc2cc(O)cc(-c3c(F)cc4c(N5[C@H]6CCC(O)[C@@H]5CC6)nc(OC[C@@]56CCCN5C[C@H](F)C6)nc4c3F)c12 (mixture of isomers) [Example 55, rac-(1S,5R)-8-(7-(8-Ethyl-7-fluoro-3-hydroxynaphthalen-1-yl)-6,8-difluoro-2-(((2R,7aS)-2-fluorotetrahydro-1H-pyrrolizin-7a(5H)-yl)methoxy)quinazolin-4-yl)-8-azabicyclo[3.2.1]octan-2-ol]",21,11,822,–
"C#Cc1c(F)ccc2cccc(-c3c(F)cc4c(N5CCC[C@@](C)(O)C5)nc(OC[C@@]56CCCN5C[C@H](F)C6)nc4c3F)c12 (single isomer, unassigned) [Example 67]",4,3,338,–
"CCc1cccc2cc(O)cc(-c3c(C#N)cc4c(N5CCCOCC5)nc(OC[C@@]56CCCN5C[C@H](F)C6)nc4c3F)c12 [Example 45, 7-(8-Ethyl-3-hydroxynaphthalen-1-yl)-8-fluoro-2-(((2R,7aS)-2-fluorotetrahydro-1H-pyrrolizin-7a(5H)-yl)methoxy)-4-(1,4-oxazepan-4-yl)quinazoline-6-carbonitrile]",12,7,525,–
"CCc1c(F)ccc2cc(O)cc(-c3ccc4c(N5C[C@H](N)CC(F)(F)C5)nc(OC[C@@]56CCCN5C[C@H](F)C6)nc4c3F)c12 [Example 4, 4-(4-((R)-5-Amino-3,3-difluoropiperidin-1-yl)-8-fluoro-2-(((2R,7aS)-2-fluorotetrahydro-1H-pyrrolizin-7a(5H)-yl)methoxy)quinazolin-7-yl)-5-etbyl-6-fluoronaphthalen-2-ol]",0.3,0.5,426,–
"CCc1c(F)ccc2cc(O)cc(-c3ccc4c(N5CCCC6(CNC6=O)C5)nc(OC[C@@]56CCCN5C[C@H](F)C6)nc4c3F)c12 (stereo partly drawn) [Example 52, 6-(7-(8-Ethyl-7-fluoro-3-hydroxynaphthalen-1-y1)-8-fluoro-2-(((2R,7a.S)-2-fluorotetrahydro-1H-pyrrolizin-7a(5H)-yl)methoxy)quinazolin-4-yl)-2,6-diazaspiro[3.5]nonan-1-one]",10,7,179,–
"CCc1c(F)ccc2cc(O)cc(-c3c(F)cc4c(N5C[C@@H]6CO[C@@H](C6)C5)nc(OC[C@@]56CCCN5C[C@H](F)C6)nc4c3F)c12 (racemic) [Example 36, rac-4-(4-((1R,5S)-6-Oxa-3-azabicyclo[3.2.1]octan-3-yl)-6,8-difluoro-2-(((2R,7aS)-2-fluorotetrahydro-1H-pyrrolizin-7a(5H)-yl)methoxy)quinazolin-7-yl)-5-ethyl-6-fluoronaphthalen-2-ol]",20,12,1080,–
"O=C1NC[C@]2(CCCN(c3nc(OC[C@@]45CCCN4C[C@H](F)C5)nc4c(F)c(-c5cc(O)cc(Cl)c5C5CC5)ccc34)C2)O1 [Example 84, (S)-7-(7-(3-Chloro-2-cyclopropyl-5-hydroxyphenyl)-8-fluoro-2-(((2R,7aS)-2-fluorotetrahydro-1H-pyrrolizin-7a(5H)-yl)methoxy)quinazolin-4-yl)-1-oxa-3,7-diazaspiro[4.5]decan-2-one]",5,2,72,–
"CCc1c(F)ccc2cc(O)cc(-c3c(F)cc4c(N5CCCC6(CCC(=O)O6)C5)nc(OC[C@@]56CCCN5C[C@H](F)C6)nc4c3F)c12 (stereo partly drawn) [Example 92, 7-(7-(8-Ethyl-7-fluoro-3-hydroxynaphthalen-1-yl)-6,8-difluoro-2-(((2R,7aS)-2-fluorotetrahydro-1H-pyrrolizin-7a(5H)-yl)methoxy)quinazolin-4-yl)-1-oxa-7-azaspiro[4.5]decan-2-one]",7,5,28,–
"C[C@@H]1C[C@@H]1c1c(Cl)cc2[nH]ncc2c1-c1ccc2c(N3CCC[C@@](C)(O)C3)nc(OC[C@@]34CCCN3C[C@H](F)C4)nc2c1F (atropisomer, axis not shown; (aS)) [Example 110, (R)-1-((R)-7-(6-Chloro-5-((1S,2R)-2-methylcyclopropyl)-1H-indazol-4-yl)-8-fluoro-2-(((2R,7aS)-2-fluorotetrahydro-1H-pyrrolizin-7a(5H)-yl)methoxy)quinazolin-4-yl)-3-methylpiperidin-3-ol]",9,8,123,–
"CCc1c(F)ccc2cc(N)cc(-c3ccc4c(N5CCC[C@@](C)(O)C5)nc(OC[C@@]56CCCN5C[C@H](F)C6)nc4c3F)c12 [Example 74, (R)-1-(7-(3-Amino-8-ethyl-7-fluoronaphthalen-1-yl)-8-fluoro-2-(((2R,7aS)-2-fluorotetrahydro-1H-pyrrolizin-7a(5H)-yl)methoxy)quinazolin-4-yl)-3-methylpiperidin-3-ol]",117,10,1050,–
"Oc1cc(-c2c(F)cc3c(N4CCCOCC4)nc(OC[C@@]45CCCN4C[C@H](F)C5)nc3c2F)c2ccccc2c1 [Example 10, 4-(6,8-Difluoro-2-(((2R,7aS)-2-fluorotetrahydro-1H-pyrrolizin-7a(5H)-yl)methoxy)-4-(1,4-oxazepan-4-yl)quinazolin-7-yl)naphthalen-2-ol]",14,15,1040,–
"CCc1c(F)ccc2cc(O)cc(-c3c(F)cc4c(N5CCCC6(CCO6)C5)nc(OC[C@@]56CCCN5C[C@H](F)C6)nc4c3F)c12 (single isomer, unassigned) [Example 39]",3,4,–,10
"C[C@@H]1C[C@@H]1c1c(Cl)cc2[nH]ncc2c1-c1c(F)cc2c(N3CCOC[C@@](C)(O)C3)nc(OC[C@@]34CCCN3C[C@H](F)C4)nc2c1F (single isomer, unassigned) [Example 98]",7,3,28,–
"C[C@@]1(O)COCCN(c2nc(OC[C@@]34CCCN3C[C@H](F)C4)nc3c(F)c(-c4cc(O)cc5ccc(F)c(Cl)c45)c(F)cc23)C1 (single isomer, unassigned) [Example 81]",5,4,8,–
"CCc1cccc2cc(O)cc(-c3c(F)cc4c(N5CCC[C@]6(CCO6)C5)nc(OC[C@@]56CCCN5C[C@H](F)C6)nc4c3F)c12 [Example 77, 4-(6,8-Difluoro-2-(((2R,7aS)-2-fluorotetrahydro-1H-pyrrolizin-7a(5H)-yl)methoxy)-4-((S)-1-oxa-6-azaspiro[3.5]nonan-6-yl)quinazolin-7-yl)-5-ethylnaphthalen-2-ol]",6,4,29,–
"CCc1c(F)ccc2cc(O)cc(-c3c(F)cc4c(N5CCC[C@]6(CCS(=O)(=O)C6)C5)nc(OC[C@@]56CCCN5C[C@H](F)C6)nc4c3F)c12 (single isomer, unassigned) [Example 94]",4,4,26,–
"CCc1c(F)ccc2cc(O)cc(-c3ccc4c(N5CCCC6(CNC(=O)C6)C5)nc(OC[C@@]56CCCN5C[C@H](F)C6)nc4c3F)c12 (stereo partly drawn) [Example 53, 7-(7-(8-Ethyl-7-fluoro-3-hydroxynaphthalen-1-yl)-8-fluoro-2-(((2R,7aS)-2-fluorotetrahydro-1H-pyrrolizin-7a(5H)-yl)methoxy)quinazolin-4-yl)-2,7-diazaspiro[4.5]decan-3-one]",3,7,251,–
